Experimental data published in publication PMC7182277, “Characterizing Emerging Canine H3 Influenza Viruses” (PLoS Pathogens, 2020).
Structures can show the parent of a compound that is named as a salt.

Legend:
NA of CIV-41915 = NA of CIV-41915 (Influenza A virus, UniProt A0A0H3YBU9); type: biochemical, canine H3N2 influenza A virus (A/canine/Illinois/41915/2015); conditions: read-out: NA enzyme inhibition assay (Mean IC50 ± SD)
NA of rCIV-1177 = NA of rCIV-1177 (Influenza A virus, UniProt A0A2D0WZJ5); type: biochemical; conditions: read-out: NA enzyme inhibition assay (Mean IC50 ± SD)
NA of Beth15 = NA of Beth15 (Influenza A virus, UniProt A0A193ACB1); type: biochemical, human H3N2 influenza A virus (A/Bethesda/55/2015); conditions: read-out: NA enzyme inhibition assay (Mean IC50 ± SD)
CIV-41915 = assay: microbe, parasite or virus in culture; type: cell-based, canine H3N2 influenza A virus (A/canine/Illinois/41915/2015); conditions: Influenza A virus, MDCK, in Canis lupus familiaris, read-out: Phenotypic assay (Mean IC50 ± SD)
rCIV-1177 = assay: microbe, parasite or virus in culture; type: cell-based; conditions: Influenza A virus, MDCK, in Canis lupus familiaris, read-out: Phenotypic assay (Mean IC50 ± SD)
Beth15 = assay: microbe, parasite or virus in culture; type: cell-based, human H3N2 influenza A virus (A/Bethesda/55/2015)

| Compound | IC50 (NA of CIV-41915) [nM] | IC50 (NA of rCIV-1177) [nM] | IC50 (NA of Beth15) [nM] | IC50 (CIV-41915) [nM] | IC50 (rCIV-1177) [nM] | Phenotypic assay (Mean IC50 ± SD) (Beth15) | IC50 (Beth15; Influenza A virus, MDCK, read-out: Phenotypic assay (Mean IC50 ± SD)) [nM] |
| --- | --- | --- | --- | --- | --- | --- | --- |
| CCC(CC)[C@H](NC(C)=O)[C@@H]1[C@H](O)[C@@H](C(=O)O)C[C@H]1N=C(N)N [Peramivir, peramivir] | 0.15 ± 0.02 | 0.19 ± 0.02 | 0.12 ± 0.02 |  |  |  |  |
| CCC(CC)O[C@@H]1C=C(C(=O)O)C[C@H](N)[C@H]1NC(C)=O [Oseltamivir carboxylate, oseltamivir carboxylate] | 0.13 ± 0.01 | 0.2 ± 0.01 |  |  |  |  |  |
| NC12CC3CC(CC(C3)C1)C2 [Amantadine, amantadine hydrochloride] |  |  |  | 600 ± 100 | 300 ± 100 | resistant | > 100000 |
